Results published in patent US20250049709A1, “ZIPRASIDONE FORMULATIONS” (BELOTECA, INC., priority 2021, published 2025).
≈ marks a conversion by molar mass, not a printed value. Where a name gives a salt, the structure may show the parent alone. Read-outs that look alike come from different tables or passages of the source.

Assays:
[1] = cited from earlier work
[2] = pH value of 1% w/v aqueous ziprasidone suspension; type: physicochemical; settings: 1% w/v aqueous ziprasidone suspension at 25° C.
Protocol: This pH value corresponds to a pH value of ziprasidone in water determined on a 1% w/v aqueous ziprasidone suspension at 25° C.

Row | pH value of ziprasidone in water [2] | Molecule | solubility in water [1] [mg/mL] | solubility in water ([1]; 25° C.) [mg/mL]
1 | – | O=C1Cc2cc(CCN3CCN(c4nsc5ccccc45)CC3)c(Cl)cc2N1 [ziprasidone hydrochloride] | 0.00718 | –
2 | ~3.2 | O=C1Cc2cc(CCN3CCN(c4nsc5ccccc45)CC3)c(Cl)cc2N1 [ziprasidone] | – | 2.13 (≈ 5.16 mM)
3 | – | ziprasidone mesylate trihydrate | 0.013 | –
